Laboratory results: PMC6225474, “Polypyridyl Zinc(II)-Indomethacin Complexes with Potent Anti-Breast Cancer Stem Cell Activity” (Molecules : A Journal of Synthetic Chemistry and Natural …, 2018)
Where two headings read alike, the source gives them in different places.

Columns and labels:
HMLER cells [1] = conditions: MTT, 72 h incubation; cited from earlier work
HMLER-shEcad cells [2] = conditions: cited from earlier work; for IC50: MTT, 72 h incubation
[3] = test system: HMLER-shEcad mammospheres; assay: Mammosphere formation assay (number and size of mammospheres); assay type: cell-based, human; conditions: HMLER-shEcad cells in suspension, treated at respective IC20 value for 5 days
Description: (§1) On day 1, 5000 HMLER-shEcad cells were seeded into each well of a 96-well ultralow-attachment plate. The culture media used was MEGM with B27 (Invitrogen), 20 ng/mL EGF, and 4 μg/mL heparin (Sigma). Compounds of interest were added to the HMLER-shEcad cells at various concentrations (0–133 μM), and the suspensions were incubated for 5 days. On day 6, the mammospheres were imaged and counted using a standard microscope. Afterwhich, TOX8 (Sigma) (20 µL) was added to each well and incubated for 16 h. On day 7, the solutions in each well were transferred to a black 96-well plate and the fluorescence was measured using a plate reader, 590 nm (λex = 560 nm). The arbitrary fluorescence values were normalised with respect to control wells (containing DMSO), and dose–response curves were plotted to determine the IC50 values. Three independent experiments were carried out, with each concentration having three repeats […].

[4] = test system: HMLER-shEcad mammospheres; parameters: method as in PMID 26806362, PMID 27774561, PMID 28932846; conditions: 120 h incubation, read-out: Mammosphere IC50; cited from earlier work
HMLER cells [5] = assay: MTT assay, bulk breast cancer cells (HMLER); assay type: cell-based, human; conditions: 72 h incubation
Description: (§2) HEK 293T human embryonic kidney cells purchased from American Type Culture Collection (ATCC, Manassas, VA, USA) were grown in DMEM (Dulbecco’s Modified Eagle’s Medium) with FBS (fetal bovine serum, 10%), and penicillin/streptomycin (1%). Human mammary epithelial CSC-depleted HMLER and human mammary epithelial CSC-enriched HMLER-shEcad cells were obtained from Prof. R.A. Weinberg (Whitehead Institute, MIT). These cells were grown in MEGM (Mammary Epithelial Cell Growth Medium) with BPE, hydrocortisone, hEGF, insulin, and gentamicin/amphotericin-B. All of the cells used in this study were cultured at 37 °C within a humidified incubator with a CO2 controller to maintin CO2 levels at 5%.
(§3) On day 1, 5000 cells (of the appropriate cell line) were plated in each well of a 96-well plate. The cells were then left to attach to the bottom of the wells overnight. On day 2, the compounds of interest were added (at different concentrations, 0.2–100 μM). The cells were incubated with the compounds for 72 h. The volume of each well at this stage was 200 μL. If DMSO was used to aid solubilization of the compounds, then the same amount of DMSO was also present in control wells. […] The absorption of each well was measured using a plate reader at 550 nm. […]

HMLER-shEcad cells [6] = assay: MTT assay, breast CSC-like cells (HMLER-shEcad); assay type: cell-based, human; conditions: 72 h incubation
Description: as §2, §3

HEK 293T cells = assay: MTT assay, human embryonic kidney (HEK 293T) cells; assay type: cell-based; conditions: for IC50: MTT, 72 h incubation
Description: as §2
On day 1, 5000 cells (of the appropriate cell line) were plated in each well of a 96-well plate. The cells were then left to attach to the bottom of the wells overnight. On day 2, the compounds of interest were added (at different concentrations, 0.2–100 μM). The cells were incubated with the compounds for 72 h. The volume of each well at this stage was 200 μL. If DMSO was used to aid solubilization of the compounds, then the same amount of DMSO was also present in control wells. On day 5, a solution of 3-(4,5-dimethylthiazol-2-yl)-2,5-diphenyltetrazolium bromide (MTT) (4 mg/mL) predissolved in PBS was added to each well of the 96-well plate (20 μL). After a further 4 h incubation, the media/MTT solution was removed and the resultant purple formazan crystals were dissolved in DMSO (200 μL). The absorption of each well was measured using a plate reader at 550 nm. The absorption values were normalised according to the control wells and dose—response curves were plotted to determine the IC50 values. Three independent experiments were carried out, with each concentration having six repeats (n = 18).

[7] = test system: HMLER-shEcad mammospheres; assay: Mammosphere viability assay (TOX8); assay type: cell-based, human; conditions: TOX8, 5 days (120 h) incubation
Description: as §1

[8] = LogP by shake-flask method with UV-Vis spectroscopy; assay type: physicochemical; conditions: octanol/water, 100 µM, shaken 24 h, room temperature
Description: The shake-flask method in combination with UV-Vis spectroscopy was used to determine the LogP values of 2–5. Briefly, to a suspension of water (500 μL) and octanol (500 μL), 2–5 was added, giving a final concentration of 100 µM. The mixture was shaken for 24 h (room temperature). Using centrifugation, the water and octanol layers were separated and the concentration of 2–5 in each layer was determined using UV-Vis spectroscopy.

[9] = UV-Vis stability study in PBS:DMSO; assay type: physicochemical; conditions: 50 µM in PBS:DMSO (200:1), 24 h at 37 °C
Excerpt: The shake-flask method was used to determine the lipophilicity (LogP) of 2–5. This involves determining the amount of a given compound partitioned between octanol and water using UV-Vis spectroscopy. […] The size of the polypyridyl ligand has a clear effect on lipophilicity, with LogP values increasing according to the following order; 2 < 3 < 4 < 5. The hydrophobicity of 2–5 implies that the zinc(II) complexes are likely to easily enter cells. […] The metal-perturbed π-π* and metal-to-ligand charge-transfer (MLCT) absorption bands of 2 (50 µM) in PBS:DMSO (200:1) were constant for 24 h at 37 °C (Figure S7), indicative of stability.

[10] = UV-Vis stability study in MEGM/DMSO; assay type: physicochemical; conditions: 50 µM in MEGM/DMSO (200:1), 24 h at 37 °C
[11] = test system: HMLER-shEcad mammospheres; parameters: method as in PMID 26865551; conditions: previous work; cited from earlier work

N.N.[Cl][Pt][Cl] [cisplatin]
IC50 (HMLER cells [1]): 3.4 ± 0.5 µM | IC50 (HMLER-shEcad cells [2]): 4.9 ± 0.4 µM

N.N.O=C([O-])C1(C(=O)[O-])CCC1.[Pt+2] [carboplatin]
IC50 (HMLER cells [1]): 67.3 ± 2.8 µM | IC50 (HMLER-shEcad cells [2]): 72.3 ± 7.9 µM

CC[C@@H](C(=O)[C@@H](C)[C@@H](O)[C@H](C)[C@@H]1O[C@@H]([C@@H](CC)C(=O)O)CC[C@@H]1C)[C@H]1O[C@]2(C=C[C@@H](O)[C@]3(CC[C@@](C)([C@H]4CC[C@](O)(CC)[C@H](C)O4)O3)O2)[C@H](C)C[C@@H]1C [salinomycin]
decrease in mammospheres formed [3]: 37% | IC50 (HMLER cells [1]): 11.4 ± 0.4 µM | IC50 (HMLER-shEcad cells [2]): 4.2 ± 0.3 µM | IC50 [4]: 18.5 ± 1.5 µM

Zn(indomethacin)2(1,10-phenanthroline) [Compound 3]
IC50 (HMLER cells [5]): 1.1 ± 0.05 µM | IC50 (HMLER-shEcad cells [6]): 1.1 ± 0.08 µM | IC50 (HEK 293T cells): 2.3 ± 0.1 µM | IC50 [7]: 44.1 ± 0.6 µM | LogP [8]: 0.97

Zn(indomethacin)2(2,2′-bipyridine) [Compound 2]
IC50 (HMLER cells [5]): 1.2 ± 0.02 µM | IC50 (HMLER-shEcad cells [6]): 0.7 ± 0.04 µM | IC50 (HEK 293T cells): 20 ± 3.9 µM | fold less potent toward HEK 293T cells than HMLER and HMLER-shEcad cells (HEK 293T cells; ratio of IC50 values, p < 0.05): up to 17 fold | IC50 [7]: > 133 µM | LogP [8]: 0.89 | stability: metal-perturbed π-π* and MLCT absorption bands [9]: constant | stability: UV-Vis absorption bands [10]: unaltered

COc1ccc2c(c1)c(CC(=O)O)c(C)n2C(=O)c1ccc(Cl)cc1 [indomethacin]
toxicity towards CSC-like cells (HMLER-shEcad cells [2]; previous work): non-toxic | mammosphere inhibitory effect [11]: poor
